From article PMC13266999, “Designing Antibiotics with Inherent Resistance to Efflux as a Strategy to Revive Discovery against Multidrug-Resistant Pathogens” (Journal of Medicinal Chemistry, 2026)
In brackets after ≈: the same amount, converted by molar mass. Where two headings read alike, the source gives them in different places.

How the values were obtained:
K. pneumoniae = test: MIC (microbroth dilution); format: cell-based, Klebsiella pneumoniae
Method: (§1) All bacteria were maintained on tryptic soy agar (TSA), except Streptococcus spp., which were maintained on Columbia agar plates containing 5% horse blood. […] Bacteria were grown to stationary phase in liquid culture overnight, with shaking at 200 rpm, before being back diluted to the relevant starting concentration for each assay below. MICs were measured by the microbroth dilution method. […] Absorbance at OD600 was read on a CLARIOstar spectrophotometer (BMG Labtech) and the MIC was defined as the minimum concentration of compound where no visible growth was detected. […] MICs were also performed in the presence of the outer membrane permeator, polymyxin b nonapeptide (PMBN) following the same MIC method but with the following variation. The 2-fold dilution series of compound was prepared as above, then 50 μL of PMBN at a final concentration of 30 μg/mL was added to relevant wells, while 50 μL/well of blank media was added to the remaining wells. Bacteria were then added at 50 μL/well for a starting concentration as above. […] The MICs were read and defined as above. All animal procedures were performed by the contract research organization Pharmacology Discovery Services Taiwan in accordance with the Guide for the Care and Use of Laboratory Animals. The procedures were approved by the Institutional Ethics Committee of Pharmacology Discovery Services Taiwan, Ltd. (approval no. AB127662), in compliance with animal welfare legislation in Taiwan.

Acinetobacter baumannii = test: MIC (microbroth dilution); format: cell-based; details: Acinetobacter baumannii
Method: All bacteria were maintained on tryptic soy agar (TSA), except Streptococcus spp., which were maintained on Columbia agar plates containing 5% horse blood. All bacterial assays were carried out in tryptic soy broth (TSB), except for Streptococcus spp. which were grown in cation-adjusted Mueller Hinton broth containing 2.5% lysed horse blood. Bacteria were grown to stationary phase in liquid culture overnight, with shaking at 200 rpm, before being back diluted to the relevant starting concentration for each assay below. MICs were measured by the microbroth dilution method. […] Absorbance at OD600 was read on a CLARIOstar spectrophotometer (BMG Labtech) and the MIC was defined as the minimum concentration of compound where no visible growth was detected. The compounds were prepared as a DMSO stock and equivalent concentrations of DMSO had no effect on bacterial growth. MICs were also performed in the presence of the outer membrane permeator, polymyxin b nonapeptide (PMBN) following the same MIC method but with the following variation. The 2-fold dilution series of compound was prepared as above, then 50 μL of PMBN at a final concentration of 30 μg/mL was added to relevant wells, while 50 μL/well of blank media was added to the remaining wells. Bacteria were then added at 50 μL/well for a starting concentration as above. Thirty μg/mL of PMBN had no effect on bacterial growth. The MICs were read and defined as above. All animal procedures were performed by the contract research organization Pharmacology Discovery Services Taiwan in accordance with the Guide for the Care and Use of Laboratory Animals. The procedures were approved by the Institutional Ethics Committee of Pharmacology Discovery Services Taiwan, Ltd. (approval no. AB127662), in compliance with animal welfare legislation in Taiwan.

[1] = target: T1, GyrA S84L mutant DNA gyrase (Staphylococcus aureus, UniProt P0A0K8+P20831, S84L); test: DNA gyrase supercoiling inhibition assay; format: biochemical, S. aureus; details: S84L mutant enzyme; read-out: IC50 (converted)
T1 construct: purchased Inspiralis Ltd. (Norwich, UK)
Method: (§2) Gyrase inhibition was determined through biochemical assay kits from Inspiralis Ltd. (Norwich, UK), according to manufacturer’s instructions, and as described previously. Briefly, 1U of enzyme was incubated with 0.5 μg of relaxed […] DNA in the presence of compound in 1% DMSO for 30 min at 37 °C. A control reaction contained no compound but still contained 1% DMSO. The reactions were stopped through Stop Buffer addition and the DNA separated through addition of chloroform/iso-amyl alcohol (24;1). Samples were run on a 1% agarose gel at 75 V for 2 h, which was then stained with 1 μg/mL ethidium bromide and visualized using a NuGenius gel imager (Syngene). The intensity of the supercoiled DNA band was quantified using Syngene software, and the inhibition of the supercoiling of the DNA by the compounds was calculated.

WT DNA gyrase = target: T2, WT DNA gyrase (Staphylococcus aureus, UniProt P0A0K8+P20831); test: DNA gyrase supercoiling inhibition assay; format: biochemical, S. aureus; details: WT enzyme; read-out: IC50 (converted)
T2 construct: purchased Inspiralis Ltd. (Norwich, UK)
Method: as §2

E. coli = test: MIC (microbroth dilution); format: cell-based; details: Escherichia coli
Method: as §1

Compound: C[C@H]1COc2c(N3CCN(C)CC3)c(F)cc3c(=O)c(C(=O)O)cn1c23 [Levofloxacin, (S)-9-Fluoro-3-methyl-10-(4-methylpiperazin-1-yl)-7-oxo-2,3-dihydro-7H-[1,4]oxazino[2,3,4-ij]quinoline-6-carboxylic acid, reference compound]
- MIC (K. pneumoniae; Klebsiella pneumoniae): 0.125 µg/mL (≈ 0.346 µM)
- MIC (K. pneumoniae; Klebsiella pneumoniae, NCTC13368, NCTC 13368, read-out: MIC): 2 µg/mL (≈ 5.53 µM)
- MIC (K. pneumoniae; TW3): 0.125 µg/mL (≈ 0.346 µM)
- MIC (Acinetobacter baumannii; A118): ≤ 0.06 µg/mL
- MIC (Acinetobacter baumannii; ATCC17978, ATCC 17978, read-out: MIC): 0.125 µg/mL (≈ 0.346 µM)
- MIC (Acinetobacter baumannii; BAA1709, BAA-1709, read-out: MIC): 0.125 µg/mL (≈ 0.346 µM)
- MIC (Acinetobacter baumannii; BAA1710, BAA-1710 (AYE), read-out: MIC): 4 µg/mL (≈ 11.1 µM)
- MIC (Acinetobacter baumannii; BAA2093, BAA-2093, read-out: MIC): 0.06 µg/mL (≈ 0.166 µM)
- MIC (Acinetobacter baumannii; NCTC10303, NCTC 10303, read-out: MIC): 0.125 µg/mL (≈ 0.346 µM)
- MIC (Acinetobacter baumannii; NCTC12156, NCTC 12156, read-out: MIC): 1 µg/mL (≈ 2.77 µM)
- MIC (Acinetobacter baumannii; NCTC13302, NCTC 13302, oxa24, read-out: MIC): 4 µg/mL (≈ 11.1 µM)
- MIC (Acinetobacter baumannii; NCTC13424, NCTC 13424, oxa23, read-out: MIC): 64 µg/mL (≈ 177 µM)
- MIC (Acinetobacter baumannii; UKA1, oxa23, read-out: MIC): 2 µg/mL (≈ 5.53 µM)
- MIC (Acinetobacter baumannii; UKA2, Low resistance, read-out: MIC): 4 µg/mL (≈ 11.1 µM)
- MIC (Acinetobacter baumannii; UKA9, read-out: MIC): 0.125 µg/mL (≈ 0.346 µM)
- MIC (Acinetobacter baumannii; UKA12, oxa23, read-out: MIC): 8 µg/mL (≈ 22.1 µM)
- MIC (Acinetobacter baumannii; UKA13, oxa23, read-out: MIC): 16 µg/mL (≈ 44.3 µM)
- MIC (Acinetobacter baumannii; UKA15, oxa23, read-out: MIC): 4 µg/mL (≈ 11.1 µM)
- MIC (Acinetobacter baumannii; UKA19, read-out: MIC): 1 µg/mL (≈ 2.77 µM)
- MIC (Acinetobacter baumannii; W1, read-out: MIC): 8 µg/mL (≈ 22.1 µM)
- MIC50 (Acinetobacter baumannii; panel of 25 A. baumannii strains): 4 µg/mL (≈ 11.1 µM)
- IC50 [1]: 545 µM
- IC50 (WT DNA gyrase): 24.1 µM
- MIC (E. coli; 319238/UR): 8 µg/mL (≈ 22.1 µM)
- MIC (E. coli; LEC006): ≤ 0.06 µg/mL
- MIC (E. coli; LEC007): ≤ 0.06 µg/mL
- MIC (E. coli; LEC077): 0.5 µg/mL (≈ 1.38 µM)
- MIC (E. coli; LEC081): 0.5 µg/mL (≈ 1.38 µM)
- MIC (E. coli; NCTC10418, NCTC 10418): ≤ 0.06 µg/mL
- MIC (E. coli; NCTC11954, NCTC 11954): ≤ 0.06 µg/mL
- MIC (E. coli; NCTC12241, NCTC 12241): ≤ 0.06 µg/mL
- MIC (E. coli; NCTC12923, NCTC 12923): ≤ 0.016 µg/mL
